ChEMBL document CHEMBL4706588, “Rational design and biological evaluation of a new class of thiazolopyridyl tetrahydroacridines as cholinesterase and GSK-3 dual inhibitors for Alzheimer's disease” (Eur J Med Chem, 2020)
Calls of active or inactive are those of the source. No cut-off for these calls is given here.

Tests used:
Cholinesterase = Cholinesterase (Homo sapiens, UniProt P06276); experiment: Inhibition of human BuChE using butyrylthiocholine iodide as substrate preincubated with enzyme for 1 min followed by substrate addition and measured after 10 mins by Ellman's method
Acetylcholinesterase = Acetylcholinesterase (Homo sapiens, UniProt P22303); experiment: Inhibition of human AChE using acetylthiocholine iodide as substrate preincubated with enzyme for 1 min followed by substrate addition and measured after 10 mins by Ellman's method
[1] = target: Glycogen synthase kinase-3 beta (Homo sapiens, UniProt P49841); experiment: biochemical
Description: Inhibition of recombinant human N-terminal His6-tagged GSK-3beta H350L mutant expressed in baculovirus infected Sf21 cells using GSM as substrate incubated for 30 mins in presence of ATP by kinase-glo luminescence assay

in vitro = details: PAMPA
Description: Effective permeability of compound at 100 ug/ml incubated for 20 hrs by PAMPA-BBB assay

[2] = Effect on cell morphology in LPS-treated mouse BV-2 cells at 5 uM pretreated for 1 hr followed by incubation with LPS for 24 hrs by fluorescence microscopic analysis; assay type: ADME; details: bv-2, 25 h
BV-2 = experiment: Inhibition of LPS-induced ROS production in mouse BV-2 cells at 5 uM incubated for 1 hr followed by LPS stimulation and measured after 24 hrs by DCFH-DA staining based inverted fluorescence microscopic analysis; assay type: functional, cell-based; details: time 25.0 hrs
[3] = Effect on swimming speed in ICR mouse model of scopolamine-induced memory impairment at 15 mg/kg, po administered 30 mins prior to scopolamine injection by Morris water maze test; assay type: ADME, organism-based; details: in vivo, 0.5 h
Mus musculus = experiment: Cognitive enhancing effect in ICR mouse model of scopolamine-induced memory impairment assessed as improvement in trajectories to platform at 15 mg/kg, po administered 30 mins prior to scopolamine injection by Morris water maze test; assay type: functional, organism-based

Sequence of Acetylcholinesterase (P22303 whole entry): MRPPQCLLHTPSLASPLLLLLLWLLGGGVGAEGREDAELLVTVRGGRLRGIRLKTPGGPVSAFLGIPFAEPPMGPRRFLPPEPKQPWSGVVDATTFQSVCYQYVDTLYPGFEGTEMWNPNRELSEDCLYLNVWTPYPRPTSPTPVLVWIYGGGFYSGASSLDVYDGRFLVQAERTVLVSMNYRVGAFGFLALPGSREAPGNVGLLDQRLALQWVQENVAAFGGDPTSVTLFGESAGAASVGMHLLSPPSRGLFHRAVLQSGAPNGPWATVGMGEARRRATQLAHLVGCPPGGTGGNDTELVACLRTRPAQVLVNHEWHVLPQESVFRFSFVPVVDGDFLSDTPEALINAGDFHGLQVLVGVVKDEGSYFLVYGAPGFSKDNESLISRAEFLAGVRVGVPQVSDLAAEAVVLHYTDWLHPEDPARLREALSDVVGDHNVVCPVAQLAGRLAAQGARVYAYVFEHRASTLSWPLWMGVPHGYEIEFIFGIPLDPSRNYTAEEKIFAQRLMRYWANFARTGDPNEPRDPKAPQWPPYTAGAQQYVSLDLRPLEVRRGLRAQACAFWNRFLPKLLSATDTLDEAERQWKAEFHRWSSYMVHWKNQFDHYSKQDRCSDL
Sequence of Cholinesterase (P06276 whole entry): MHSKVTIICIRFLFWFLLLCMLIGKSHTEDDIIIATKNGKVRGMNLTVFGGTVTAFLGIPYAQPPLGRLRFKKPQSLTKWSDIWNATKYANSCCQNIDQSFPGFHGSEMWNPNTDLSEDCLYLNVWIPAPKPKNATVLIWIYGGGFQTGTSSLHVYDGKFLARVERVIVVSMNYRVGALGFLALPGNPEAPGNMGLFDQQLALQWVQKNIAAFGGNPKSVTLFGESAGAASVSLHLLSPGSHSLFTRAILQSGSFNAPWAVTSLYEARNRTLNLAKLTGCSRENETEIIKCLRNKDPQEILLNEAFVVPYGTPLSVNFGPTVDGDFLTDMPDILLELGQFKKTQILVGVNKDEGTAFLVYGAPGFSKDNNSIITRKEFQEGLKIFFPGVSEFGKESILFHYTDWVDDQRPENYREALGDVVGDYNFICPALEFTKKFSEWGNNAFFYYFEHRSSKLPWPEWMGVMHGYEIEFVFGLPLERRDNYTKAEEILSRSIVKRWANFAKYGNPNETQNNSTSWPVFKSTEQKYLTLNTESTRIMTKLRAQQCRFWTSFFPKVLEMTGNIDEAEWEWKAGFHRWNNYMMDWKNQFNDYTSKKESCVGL
Sequence of Glycogen synthase kinase-3 beta (P49841 whole entry): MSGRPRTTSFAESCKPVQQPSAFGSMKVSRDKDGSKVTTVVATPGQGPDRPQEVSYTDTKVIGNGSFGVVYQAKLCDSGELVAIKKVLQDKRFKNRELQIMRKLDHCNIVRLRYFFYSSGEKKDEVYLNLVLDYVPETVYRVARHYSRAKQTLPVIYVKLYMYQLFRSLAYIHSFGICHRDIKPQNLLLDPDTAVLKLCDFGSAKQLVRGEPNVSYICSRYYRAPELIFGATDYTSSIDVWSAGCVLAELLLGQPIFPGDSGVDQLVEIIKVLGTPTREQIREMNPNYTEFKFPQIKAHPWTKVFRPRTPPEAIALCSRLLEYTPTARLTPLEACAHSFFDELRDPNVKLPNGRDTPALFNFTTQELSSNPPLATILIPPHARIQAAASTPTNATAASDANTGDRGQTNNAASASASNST

Row | Structure (SMILES) | IC50 (Cholinesterase) [nM] | IC50 (Acetylcholinesterase) [nM] | IC50 [1] [nM] | Papp at 20 h, 100 ug/ml (in vitro) [×10⁻⁶ cm/s] | Activity [2] | inhibition (BV-2) | Activity [3] | Activity (Mus musculus)
1 | O=C(NCCCNc1c2c(nc3ccccc13)CCCC2)c1sc(-c2ccnc(NC(=O)C3CCC3)c2)nc1OCC1CC1 | 30.7 | 295 | 80.7 |  |  |  |  | 
2 | CNC(=O)c1sc(-c2ccnc(NC(=O)CNCCNc3c4c(nc5ccccc35)CCCC4)c2)nc1OCC(C)C | 619 | 49.2 | 132 |  |  |  |  | 
3 | CNC(=O)c1sc(-c2ccnc(NC(=O)CNCCNc3c4c(nc5ccccc35)CCCC4)c2)nc1OCC(C)(C)C | 236 | 103 | 165 |  |  |  |  | 
4 | CNC(=O)c1sc(-c2ccnc(NC(=O)C3CC3)c2)nc1OCCc1cn(CCNc2c3c(nc4cc(Cl)ccc24)CCCC3)nn1 | > 1000 | 38.7 | 46.7 | 4.7 |  |  |  | 
5 | CNC(=O)c1sc(-c2ccnc(NC(=O)C3CC3)c2)nc1OCCc1cn(CCNc2c3c(nc4ccccc24)CCCC3)nn1 | 300 | 269 | 72 |  |  |  |  | 
6 | CNC(=O)c1sc(-c2ccnc(NC(=O)CNCCNc3c4c(nc5ccccc35)CCCC4)c2)nc1OC | 262 | 97.4 | 41.1 |  |  |  |  | 
7 | COc1nc(-c2ccnc(NC(=O)C3CC3)c2)sc1C(N)=O | > 1000 | > 1000 | 17.2 |  |  |  |  | 
8 | CNC(=O)c1sc(-c2ccnc(NC(=O)C3CC3)c2)nc1OCCOCc1cn(-c2c3c(nc4ccccc24)CCCC3)nn1 | 200 | > 1000 | 83.9 |  |  |  |  | 
9 | O=C(NCCCNc1c2c(nc3ccccc13)CCCC2)c1sc(-c2ccnc(NC(=O)C3CC3)c2)nc1OCC1CC1 | 216 | 312 | 104 |  |  |  |  | 
10 | NC(=O)c1sc(-c2ccnc(NC(=O)C3CC3)c2)nc1OCCc1cn(-c2c3c(nc4ccccc24)CCCC3)nn1 | > 1000 | > 1000 | 6.5 |  |  |  |  | 
11 | CNC(=O)c1sc(-c2ccnc(NC(=O)CNCCCCNc3c4c(nc5ccccc35)CCCC4)c2)nc1OCC1CC1 | 48.3 | 23.1 | 41.6 | 7.1 |  |  |  | 
12 | CNC(=O)c1sc(-c2ccnc(NC(=O)CNCCNc3c4c(nc5ccc(OC)cc35)CCCC4)c2)nc1OCC1CC1 | > 1000 | 30.7 | 39.3 | 5.7 |  |  |  | 
13 | CNC(=O)c1sc(-c2ccnc(NC(=O)C3CC3)c2)nc1OCCc1cn(CCNc2c3c(nc4ccc(OC)cc24)CCCC3)nn1 | 37.5 | > 1000 | 37.1 |  |  |  |  | 
14 | CNC(=O)c1sc(-c2ccnc(NC(=O)CNCCNc3c4c(nc5cc(Cl)ccc35)CCCC4)c2)nc1OCC1CC1 | 613 | 40.5 | 62.6 |  |  |  |  | 
15 | CCCNC(=O)c1sc(-c2ccnc(NC(=O)CNCCNc3c4c(nc5ccccc35)CCCC4)c2)nc1OCC1CC1 | 89.5 | 4.9 | 239 |  |  |  |  | 
16 | CC(=O)Nc1cc(-c2nc(OCC3CC3)c(C(=O)NCCCNc3c4c(nc5ccccc35)CCCC4)s2)ccn1 | 173 | 394 | 92.8 |  |  |  |  | 
17 | CNC(=O)c1sc(-c2ccnc(NC(=O)CNCCCCCCCCNc3c4c(nc5ccccc35)CCCC4)c2)nc1OCC1CC1 | 3.2 | 15.2 | 62.2 |  |  |  |  | 
18 | CNC(=O)c1sc(-c2ccnc(NC(=O)C3CC3)c2)nc1OCCCc1cn(CCNc2c3c(nc4ccc(OC)cc24)CCCC3)nn1 | > 1000 | > 1000 | 14.6 |  |  |  |  | 
19 | CNC(=O)c1sc(-c2ccnc(NC(=O)CNCCNc3c4c(nc5ccccc35)CCCC4)c2)nc1OCC1CCC1 | 277 | 155 | 130 |  |  |  |  | 
20 | CNC(=O)c1sc(-c2ccnc(NC(=O)CNCCCCCCNc3c4c(nc5ccccc35)CCCC4)c2)nc1OCC1CC1 | 8.2 | 21.9 | 62 |  |  |  |  | 
21 | CNC(=O)c1sc(-c2ccnc(NC(=O)C3CC3)c2)nc1OCCCc1cn(CCNc2c3c(nc4ccccc24)CCCC3)nn1 | 170 | 168 | 64.3 |  |  |  |  | 
22 | CNC(=O)c1sc(-c2ccnc(NC(=O)C3CC3)c2)nc1OCCOCc1cn(CCNc2c3c(nc4cc(Cl)ccc24)CCCC3)nn1 | > 1000 | 12.1 | 26.3 | 4.2 |  |  |  | 
23 | CNC(=O)c1sc(-c2ccnc(NC(=O)C3CC3)c2)nc1OCCOCc1cn(CCNc2c3c(nc4ccccc24)CCCC3)nn1 | 360 | 44.7 | 20.8 | 4.6 | Non-Toxic | Active | Non-Toxic | Active
24 | CCn1cc(C(=O)O)c(=O)c2cc(F)c(N3CCNC(C)C3)c(F)c21 (stereo unspecified) [LOMEFLOXACIN] |  |  |  | 0.9 |  |  |  | 
25 | CNC(=O)c1sc(-c2ccnc(NC(=O)C3CC3)c2)nc1OCCOCc1cn(CCNc2c3c(nc4ccc(OC)cc24)CCCC3)nn1 | > 1000 | > 1000 | 31 |  |  |  |  | 
26 | CNC(=O)c1sc(-c2ccnc(NC(=O)C3CC3)c2)nc1OCCc1cn(-c2c3c(nc4ccccc24)CCCC3)nn1 | 600 | > 1000 | 51.7 |  |  |  |  | 
27 | CCNC(=O)c1sc(-c2ccnc(NC(=O)CNCCNc3c4c(nc5ccccc35)CCCC4)c2)nc1OCC1CC1 | 512 | 45.2 | 114 |  |  |  |  | 
28 | CCn1cc(C(=O)O)c(=O)c2ccc(-n3cccc3)cc21 |  |  |  | 2.5 |  |  |  | 
29 | CNC(=O)c1sc(-c2ccnc(NC(=O)CNCCNc3c4c(nc5ccccc35)CCCC4)c2)nc1OC(C)C | 330 | 237 | 71.6 |  |  |  |  | 
30 | NC(=O)c1sc(-c2ccnc(NC(=O)CNCCNc3c4c(nc5ccccc35)CCCC4)c2)nc1OCC1CC1 | 190 | 0.8 | 42.6 | 4.9 |  |  |  | 
